Here are results for 29 compounds from patent publication EP4653437A2 (Innovo Therapeutics Inc., priority 2023, dated 2024).

In one assay the target is T1, human 15-PGDH (Homo sapiens, UniProt P15428).
T1 construct: purchased R&D System 5660-DH
T1 sequence (P15428 1-266): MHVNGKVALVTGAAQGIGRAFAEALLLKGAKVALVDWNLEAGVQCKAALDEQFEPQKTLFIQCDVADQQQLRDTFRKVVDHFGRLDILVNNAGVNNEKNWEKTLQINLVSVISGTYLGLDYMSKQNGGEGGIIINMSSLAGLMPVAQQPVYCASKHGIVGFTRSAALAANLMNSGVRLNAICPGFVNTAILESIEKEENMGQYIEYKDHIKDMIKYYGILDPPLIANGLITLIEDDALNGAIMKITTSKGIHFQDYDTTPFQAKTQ
As to the kind of experiment: Evaluation of 15-PGDH inhibitory activity (fluorescence enzyme assay, NAD+/PGE2). The format is biochemical. The note with it: human 15-PGDH enzyme, fluorescence Vmax. How it is done: 15-PGDH inhibition activity of Example compounds was measured as follows. 6.7 ng of human 15-PGDH (R&D System# 5660-DH) enzyme (10 µL) was added to a black 96 well plate, 60 µL of buffer (50 mM Tris-HCl, pH 7.5, 0.01% Tween 20) was added, and 10 µL of 200 µM β-Nicotinamide adenine dinucleotide sodium salt (Sigma, Cat# N0632-5G) was added. 10 µL of (10x) compound solution in DMSO was added and reacted for 10 minutes at room temperature.

The test system of the next assay is A549 cells. The assay can be described thus: Measurement of PGE2-increasing activity in A549 cells (IL-1β stimulated, PGE2 quantified in supernatant). The class given is cell-based. The note with it: for fold induction at 1 µM: Homo sapiens, 24 h, concentration of 1 µM of each compound, IL-1β treated A549 cells, read-out: Increased PGE2 production in A549 cells. In short, it runs like this:
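PGE2 secreted into the supernatant was measured by immunoassay 24 h after treatment. Before treatment, A549 cells were cultured 24 h in 10% FBS F12K, washed, and placed in serum-free medium containing compound (DMSO 0.1% final) plus or minus IL-1β, incubated at 37 °C, 5% CO2.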

`O=C(Nc1ccc(-c2cccc3c(C(=O)N4CCCCC4)cnn23)cc1)C1CC1` [Example 100, N-(4-(3-(piperidine-1-carbonyl)pyrazolo[1,5-a]pyridin-7-yl)phenyl)cyclopropanecarboxamide]: the IC50 on human 15-PGDH was ≤ 0.1 µM. Moreover, the fold induction at 1 µM in the assay with A549 cells was > 1.5.

Consider `O=C(c1cnn2c(-c3ccc(N4CC(F)(F)C4)nc3)cccc12)N1CCCCC1` [Example 209, (7-(6-(3,3-difluoroazetidin-1-yl)pyridin-3-yl)pyrazolo[1,5-a]pyridin-3-yl)(piperidin-1-yl)methanone], for which the IC50 against human 15-PGDH was ≤ 0.1 µM. Further, the fold induction at 1 µM in the assay with A549 cells was > 1.5.

Take `O=C(O)c1ccc(-c2cccc3c(C(=O)N4CCCCC4)cnn23)cc1` [Example 10, 4-(3-(piperidine-1-carbonyl)pyrazolo[1,5-a]pyridin-7-yl)benzoic acid]: on human 15-PGDH, the IC50 was ≤ 0.1 µM. The fold induction at 1 µM in the assay on A549 cells is < 1.5.

As for `O=C(c1cnn2c(-c3ccc(N4CC5CCC4CC5)nc3)cccc12)N1CCCCC1` [Example 216, (7-(6-(2-azabicyclo[2.2.2]octan-2-yl)pyridin-3-yl)pyrazolo[1,5-a]pyridin-3-yl)(piperidin-1-yl)methanone], on human 15-PGDH, the IC50 was ≤ 0.1 µM. Also, the fold induction at 1 µM in the assay on A549 cells was > 1.5.

`CS(=O)(=O)Nc1ccc(-c2cccc3c(C(=O)N4CCCCC4)cnn23)cn1` [Example 112, N-(5-(3-(piperidine-1-carbonyl)pyrazolo[1,5-a]pyridin-7-yl)pyridin-2-yl)methanesulfonamide]: at human 15-PGDH, the IC50 is ≤ 0.1 µM. Besides, the fold induction at 1 µM with A549 cells is > 1.5.

As for `O=C(c1cnn2c(-c3ccc(-c4ccoc4)cc3)cccc12)N1CCCCC1` [Example 302, [7-[4-(3-furyl)phenyl]pyrazolo[1,5-a]pyridin-3-yl]-(1-piperidyl)methanone], the IC50 at human 15-PGDH is ≤ 0.1 µM. Moreover, the fold induction at 1 µM in the assay with A549 cells was < 1.5.

As for `CC(C)N1CCN(C(=O)c2ccc(-c3cccc4c(C(=O)N5CCCCC5)cnn34)cc2)CC1` [Example 68, (4-isopropylpiperazin-1-yl)(4-(3-(piperidine-1-carbonyl)pyrazolo[1,5-a]pyridin-7-yl)phenyl)methanone], the IC50 at human 15-PGDH was ≤ 0.1 µM. Besides, in the assay on A549 cells, the fold induction at 1 µM is > 1.5.

Regarding `Nc1ccc(-c2cccc3c(C(=O)N4CCCCC4)cnn23)cn1` [Example 17, (7-(6-aminopyridin-3-yl)pyrazolo[1,5-a]pyridin-3-yl)(piperidin-1-yl)methanone], the IC50 against human 15-PGDH is ≤ 0.1 µM. In addition, the fold induction at 1 µM in the assay on A549 cells was < 1.5.

As to `O=C(c1cnn2c(-c3ccc(Cl)cc3)cccc12)N1CCCCC1` [Example 12, (7-(4-chlorophenyl)pyrazolo[1,5-a]pyridin-3-yl)(piperidin-1-yl)methanone], the IC50 on human 15-PGDH is ≤ 0.1 µM. Moreover, the fold induction at 1 µM with A549 cells is > 1.5.

`O=C(Nc1ccncc1)c1ccc(-c2cccc3c(C(=O)N4CCCCC4)cnn23)cc1` [Example 72, 4-(3-(piperidine-1-carbonyl)pyrazolo[1,5-a]pyridin-7-yl)-N-(pyridin-4-yl)benzamide]: the IC50 against human 15-PGDH was ≤ 0.1 µM. Further, the fold induction at 1 µM with A549 cells is > 1.5.

Turning to `O=C(c1cnn2c(-c3ccc(-c4nnco4)cc3)cccc12)N1CCCCC1` [Example 350, [7-[4-(1,3,4-oxadiazol-2-yl)phenyl]pyrazolo[1,5-a]pyridin-3-yl]-(1-piperidyl)methanone], the IC50 on human 15-PGDH is ≤ 0.1 µM. In addition, in the assay on A549 cells, the fold induction at 1 µM was > 1.5.

`CN(C)C(=O)c1ccc(-c2cccc3c(C(=O)N4CCCCC4)cnn23)cc1` [Example 59, N,N-dimethyl-4-(3-(piperidine-1-carbonyl)pyrazolo[1,5-a]pyridin-7-yl)benzamide]: the IC50 against human 15-PGDH was ≤ 0.1 µM. Besides, the fold induction at 1 µM with A549 cells was > 1.5.

As for `Cn1cnc2ncc(-c3cccc4c(C(=O)N5CCCCC5)cnn34)cc2c1=O` [Example 255, 3-methyl-6-(3-(piperidine-1-carbonyl)pyrazolo[1,5-a]pyridin-7-yl)pyrido[2,3-d]pyrimidin-4(3H)-one], the IC50 against human 15-PGDH was ≤ 0.1 µM. Also, the fold induction at 1 µM in the assay with A549 cells is > 1.5.

As for `O=C(c1cnn2c(-c3cc(F)cc(Cl)c3)cccc12)N1CCCCC1` [Example 279, (7-(3-chloro-5-fluorophenyl)pyrazolo[1,5-a]pyridin-3-yl)(piperidin-1-yl)methanone], the IC50 on human 15-PGDH was ≤ 0.1 µM. The fold induction at 1 µM in the assay with A549 cells is < 1.5.

With `O=C1CC(C(=O)Nc2ccc(-c3cccc4c(C(=O)N5CCCCC5)cnn34)cn2)CCN1` (stereo not shown) [Example 105, 2-oxo-N-(5-(3-(piperidine-1-carbonyl)pyrazolo[1,5-a]pyridin-7-yl)pyridin-2-yl)piperidine-4-carboxamide], the IC50 on human 15-PGDH was ≤ 0.1 µM. Moreover, the “Increased PGE2 production in A549 cells” value with A549 cells is “++ (key: +: 0 < PGE2 increasing ability < 1.5; ++: PGE2 increasing ability ≥ 1.5)”.

On to `O=C1NCc2ccc(-c3cccc4c(C(=O)N5CCCCC5)cnn34)cc21` [Example 140, 6-(3-(piperidine-1-carbonyl)pyrazolo[1,5-a]pyridin-7-yl)isoindolin-1-one], for which the IC50 on human 15-PGDH was ≤ 0.1 µM. Moreover, the fold induction at 1 µM in the assay on A549 cells was > 1.5.

In the case of `O=C(c1ccc(-c2cccc3c(C(=O)N4CCCCC4)cnn23)cc1)N1CCC1` [Example 61, azetidin-1-yl(4-(3-(piperidine-1-carbonyl)pyrazolo[1,5-a]pyridin-7-yl)phenyl)methanone], the IC50 at human 15-PGDH was ≤ 0.1 µM. The fold induction at 1 µM in the assay on A549 cells is > 1.5.

Take `N#Cc1ccc(-c2cccc3c(C(=O)N4CCCCC4)cnn23)c(F)c1` [Example 285, 3-fluoro-4-[3-(piperidine-1-carbonyl)pyrazolo[1,5-a]pyridin-7-yl]benzonitrile]: the IC50 on human 15-PGDH is ≤ 0.1 µM. Moreover, in the assay with A549 cells, the fold induction at 1 µM was > 1.5.

As for `O=C(Nc1ccc(-c2cccc3c(C(=O)N4CCCCC4)cnn23)cn1)c1cccnc1` [Example 287, N-(5-(3-(piperidine-1-carbonyl)pyrazolo[1,5-a]pyridin-7-yl)pyridin-2-yl)nicotinamide], the IC50 at human 15-PGDH is ≤ 0.1 µM. In addition, the fold induction at 1 µM in the assay on A549 cells was > 1.5.

Turning to `O=C(c1cnn2c(-c3cnc(Cl)nc3)cccc12)N1CCCCC1` [Example 267, (7-(2-chloropyrimidin-5-yl)pyrazolo[1,5-a]pyridin-3-yl)(piperidin-1-yl)methanone], the IC50 on human 15-PGDH was ≤ 0.1 µM. Further, the fold induction at 1 µM in the assay on A549 cells is > 1.5.

Consider `N#Cc1ncc(-c2cccc3c(C(=O)N4CCCCC4)cnn23)cc1F` [Example 205, 3-fluoro-5-[3-(piperidine-1-carbonyl)pyrazolo[1,5-a]pyridin-7-yl]pyridine-2-carbonitrile], for which the IC50 at human 15-PGDH was ≤ 0.1 µM. In the assay on A549 cells, the fold induction at 1 µM was > 1.5.

`O=C1NCc2ccc(-c3cccc4c(C(=O)N5CC6(CCC6)C5)cnn34)cc21` [Example 390, 6-(3-(2-azaspiro[3.3]heptane-2-carbonyl)pyrazolo[1,5-a]pyridin-7-yl)isoindolin-1-one]: the IC50 against human 15-PGDH is ≤ 0.1 µM. Further, the fold induction at 1 µM with A549 cells is > 1.5.

On to `Nc1cccc(-c2cccc3c(C(=O)N4CCCCC4)cnn23)c1` [Example 7, (7-(3-aminophenyl)pyrazolo[1,5-a]pyridin-3-yl)(piperidin-1-yl)methanone], for which the IC50 at human 15-PGDH is ≤ 0.1 µM. The fold induction at 1 µM with A549 cells was > 1.5.

Regarding `CC(C)Nc1ccc(-c2cccc3c(C(=O)N4CCCCC4)cnn23)cn1` [Example 109, (7-(6-(isopropylamino)pyridin-3-yl)pyrazolo[1,5-a]pyridin-3-yl)(piperidin-1-yl)methanone], on human 15-PGDH, the IC50 was ≤ 0.1 µM. In the assay with A549 cells, the fold induction at 1 µM was > 1.5.

With `COCCNC(=O)c1ccc(-c2cccc3c(C(=O)N4CCCCC4)cnn23)cn1` [Example 78, N-(2-methoxyethyl)-5-(3-(piperidine-1-carbonyl)pyrazolo[1,5-a]pyridin-7-yl)picolinamide], at human 15-PGDH, the IC50 is ≤ 0.1 µM. In addition, the fold induction at 1 µM in the assay on A549 cells was > 1.5.

Consider `Nc1n[nH]c2cc(-c3cccc4c(C(=O)N5CCCCC5)cnn34)ccc12` [Example 309, [7-(3-amino-1H-indazol-6-yl)pyrazolo[1,5-a]pyridin-3-yl]-(1-piperidyl)methanone], for which the IC50 against human 15-PGDH was ≤ 0.1 µM. Moreover, in the assay with A549 cells, the fold induction at 1 µM was > 1.5.

`O=C1NCc2ccc(-c3cccc4c(C(=O)N5CC=CCC5)cnn34)cc21` [Example 401, 6-(3-(1,2,3,6-tetrahydropyridine-1-carbonyl)pyrazolo[1,5-a]pyridin-7-yl)isoindolin-1-one]: the IC50 against human 15-PGDH was ≤ 0.1 µM. In the assay with A549 cells, the fold induction at 1 µM was > 1.5.

For the compound `O=C(c1cnn2c(-c3ccc(Br)nc3)cccc12)N1CCCCC1` [Example 313, (7-(6-bromopyridin-3-yl)pyrazolo[1,5-a]pyridin-3-yl)(piperidin-1-yl)methanone], the IC50 at human 15-PGDH is ≤ 0.1 µM. Also, in the assay on A549 cells, the fold induction at 1 µM was > 1.5.

For the compound `O=C(c1cnn2c(-c3ccc(-c4cnc(O)nc4)cc3)cccc12)N1CCCCC1` [Example 306, [7-[4-(2-hydroxypyrimidin-5-yl)phenyl]pyrazolo[1,5-a]pyridin-3-yl]-(1-piperidyl)methanone], the IC50 at human 15-PGDH is ≤ 0.1 µM. In addition, in the assay on A549 cells, the fold induction at 1 µM is > 1.5.

One may read the IC50 as the concentration that gives 50% inhibition. Low readings indicate inhibition by little substance, high ones a need for much substance.
